Reference: paper PMC10602174, “Simultaneous Inhibition of PI3K and PAK in Preclinical Models of Neurofibromatosis Type 2-related Schwannomatosis” (Research Square, 2023)

Columns and labels:
HS01 cells (human MD-SC) = experiment: Cell viability (CellTiter-Fluor) and Combenefit synergy, 10x10 matrix; format: cell-based; details: HS01 72h, read-out: % Control cell viability
Description: (§1) Drugs used in this study are listed with their targets in Table S1. All drugs were obtained from SelleckChem (Houston, TX, USA), apart from (−)-B-Hydrastine (Santa Cruz Biotechnology, Dallas, TX, USA). Drugs were dissolved in DMSO (10 mM stock). MD-SCs were seeded in 384-well CellBind Corning plates at 1000 cells/well in phenol red-free media. After attachment, cells were treated with drugs at 10 concentrations in a 10×10 matrix. Mouse cells were treated for 48h and human cells for 72h prior to assessment of cell viability with CellTiter-Fluor Assay (Promega, Madison, WI, USA). All drugs were tested in at least two human MD-SC lines. Follow up testing was performed on a subset of combinations using the mouse MD-SC line. Matrix combination data was uploaded into the Combenefit software system to assess drug synergy using three methods (Loewe, Bliss, and HSA)([18]).

HS03 cells (human MD-SC) = experiment: as above; format: cell-based; details: HS03 72h, read-out: % Control cell viability
Description: as §1

MS01 cells (mouse MD-SC) = experiment: as above; format: cell-based; details: MS01 48h, read-out: % Control cell viability
Description: as §1

[1] = Pharmacokinetic study, plasma and sciatic nerve after single oral gavage; format: in vivo, NSG mice
Description: The UCF animal facility is accredited by the Association for Assessment and Accreditation of Laboratory Animal Care. A total of 50 six- to eight-week-old mice were used for pharmacokinetic studies. […] Drugs were delivered via 0.5% methylcellulose, 0.2% Tween 80, 10% DMSO vehicle. Ten mice (three per drug and one control receiving vehicle alone) were used at each time point. Collected samples were frozen and sent to Cyprotex (Watertown, MA, USA) for LC-MS/MS quantitation of drug levels. Pharmacokinetic calculations were performed using the PKSolver software. The plasma half-life (t½) was calculated as the time required to reduce by half the plasma concentration after reaching pseudo-equilibrium and is not the time required to eliminate half the administered dose. An additional LC-MS/MS analyses of a subset of the treated mice (see below) was conducted. […] Three mice from each treatment group were selected randomly at the end of the in vivo study to assess the levels of drug in plasma, intact control nerve, and tumor. Samples were collected 4h after the final oral gavage, frozen, and sent to Cyprotex for analysis.

[2] = tested on: human MD-SCs (HS02, HS05); details: human MD-SC lines, Incucyte
Description: Human HS11, HS01, HS02, HS13 and HS05 and mouse MTC-10 cells (1,000 cells/well) were seeded in growth medium in three replicate wells/condition of a 384-well CellBIND Corning plate. […] Wells were imaged using the Incucyte® S5 Live-Cell Analysis system (Sartorius) for 24–72h. Phase and green fluorescent images were collected every 2h and analyzed using the integrated basic analyzer software.

mouse MD-SCs (MS01) = experiment: Incucyte confluency and CC-3/7 assay; format: cell-based
HS02 cells = experiment: Proteome Profiler Human Apoptosis Array; format: cell-based; details: HS02, pictilisib 2.5 μM 6h vs vehicle
Description: (§2) Human HS02 MD-SCs and mouse MTC-10 (MS01) MD-SCs cell lines were used. […] Cells were lysed and procedure was performed according to the Proteome Profiler Human or Mouse Apoptosis Array Kit (Cat No: ARY009 for Human, Cat No: ARY031 for Mouse, Biotechne, Minneapolis, MA, USA). Arrays were visualized using the Jess System (Biotechne), densitometry was measured and normalized to reference spots using ImageJ Software (NIH, Bethesda, MD, USA). Calculations were carried out using Prism 9 Software (GraphPad, Boston, MA, USA).

MS01 cells = experiment: Proteome Profiler Mouse Apoptosis Array; format: cell-based; details: MS01, pictilisib 2.5 μM 6h vs vehicle
Description: as §2

glioblastoma xenografts = tested on: glioblastoma xenografts; parameters: method as in PMID 19584227; details: cited from earlier work
[3] = tested on: ovarian cancer xenografts; parameters: method as in PMID 19584227; details: cited from earlier work
[4] = tested on: patients with advanced solid tumors; details: phase 1, advanced solid tumors; cited from earlier work
[5] = tested on: estrogen receptor positive breast cancer patients; details: addition of pictilisib to fulvestrant; cited from earlier work
luminal B breast cancer = details: adding pictilisib to anastrozole; cited from earlier work
[6] = tested on: patients with advanced solid tumors; details: pictilisib combined with the MEK inhibitor cobimetinib; cited from earlier work

## CS(=O)(=O)N1CCN(Cc2cc3nc(-c4cccc5[nH]ncc45)nc(N4CCOCC4)c3s2)CC1 [Pictilisib]
HS01 cells (human MD-SC); single drug 39.06 nM
  viability at 0.03906 µM: 88%
HS01 cells (human MD-SC); single drug 78.13 nM
  viability at 0.07813 µM: 85%
HS01 cells (human MD-SC); single drug 156.25 nM
  viability at 0.15625 µM: 78%
HS01 cells (human MD-SC); single drug 312.5 nM
  viability at 0.3125 µM: 72%
HS01 cells (human MD-SC); single drug 625 nM
  viability at 0.625 µM: 72%
HS01 cells (human MD-SC); single drug 1250 nM
  viability at 1.25 µM: 66%
HS01 cells (human MD-SC); single drug 2500 nM
  viability at 2.5 µM: 66%
HS01 cells (human MD-SC); single drug 5000 nM
  viability at 5 µM: 64%
HS01 cells (human MD-SC); single drug 10000 nM
  viability at 10 µM: 65%
HS03 cells (human MD-SC); single drug 39.06 nM
  viability at 0.03906 µM: 93%
HS03 cells (human MD-SC); single drug 78.13 nM
  viability at 0.07813 µM: 97%
HS03 cells (human MD-SC); single drug 156.25 nM
  viability at 0.15625 µM: 94%
HS03 cells (human MD-SC); single drug 312.5 nM
  viability at 0.3125 µM: 89%
HS03 cells (human MD-SC); single drug 625 nM
  viability at 0.625 µM: 86%
HS03 cells (human MD-SC); single drug 1250 nM
  viability at 1.25 µM: 79%
HS03 cells (human MD-SC); single drug 2500 nM
  viability at 2.5 µM: 68%
HS03 cells (human MD-SC); single drug 5000 nM
  viability at 5 µM: 72%
HS03 cells (human MD-SC); single drug 10000 nM
  viability at 10 µM: 77%
MS01 cells (mouse MD-SC); single drug 39.06 nM
  viability at 0.03906 µM: 81%
MS01 cells (mouse MD-SC); single drug 78.13 nM
  viability at 0.07813 µM: 78%
MS01 cells (mouse MD-SC); single drug 156.25 nM
  viability at 0.15625 µM: 70%
MS01 cells (mouse MD-SC); single drug 312.5 nM
  viability at 0.3125 µM: 65%
MS01 cells (mouse MD-SC); single drug 625 nM
  viability at 0.625 µM: 65%
MS01 cells (mouse MD-SC); single drug 1250 nM
  viability at 1.25 µM: 54%
MS01 cells (mouse MD-SC); single drug 2500 nM
  viability at 2.5 µM: 53%
MS01 cells (mouse MD-SC); single drug 5000 nM
  viability at 5 µM: 50%
MS01 cells (mouse MD-SC); single drug 10000 nM
  viability at 10 µM: 55%
[1]; both sexes, NOD.Cg-Prkdcscid Il2rgtm1Wjl/SzJ (NSG), mouse, plasma, po, read-out: time of maximum plasma concentration
  Tmax: 1 h
[1]; single agent, single oral gavage
  penetration of blood-nerve barrier / detection in intact nerve: penetrated the normal blood-nerve barrier
[1]; single agent, single oral gavage 75 mg/kg
  time of maximum nerve concentration: 1 h
[2]
  confluency: significantly reduced confluency
Mouse MD-SCs (MS01)
  CC-3/7 signal: high CC-3/7 signal
  confluency: low confluency
HS02 cells
  CC-3, Bcl-2 and Bcl-x protein levels: no difference
  XIAP protein level: significant increase
MS01 cells
  CC-3 protein level: significant increase
  anti-apoptotic proteins Bcl-2, Bcl-x and XIAP: significant decrease
Glioblastoma xenografts
  growth inhibition: 98%
[3]
  growth inhibition: 80%
[4]
  tolerability: well tolerated
[5]
  dose-limiting toxicity: limited by toxicity
  progression-free survival: did not significantly improve progression-free survival
Luminal B breast cancer
  suppression of tumor cell proliferation: significantly increased suppression of tumor cell proliferation
[6]
  tolerability and efficacy: limited tolerability and efficacy
